Earlier results in patent US20160158308A1 (priority 2013, published 2016).
Read-outs that look alike come from different tables or passages of the source.

Assays:
[1] = test system: Mycobacterium tuberculosis; settings: NAC at 10 millimolar
[2] = rat liver, CO-60, water control = 0% removal

| SMILES | M. tuberculosis CFU/ml [1] | removal of the toxin [2] [%] | removal of the toxin ([2]; listed as Intravenous glutathione) [%] |
| --- | --- | --- | --- |
| CC(=O)N[C@@H](CS)C(=O)O [NAC, N-acetyl cysteine] | 8,000 CFU/ml | – | – |
| N[C@@H](CCC(=O)N[C@@H](CS)C(=O)NCC(=O)O)C(=O)O [Plain glutathione, glutathione] | – | 0 | 64 |
